In US20250179066A1, “ZWITTERIONIC ANTIBACTERIAL COMPOUNDS” (Hoffmann-La Roche Inc., priority 2022, published 2025) one finds IC90 data, which are given here for 17 compounds.

Where a name gives a salt, the structure may show the parent alone.

The subject of the first assay is Acinetobacter baumannii ATCC17961. Nature of the assay: Antimicrobial susceptibility testing: 90% growth inhibitory concentration (IC90) determination. To be noted: 90% growth inhibitory concentration against Acinetobacter baumannii ATCC17961, Iso-Sensitest broth, OD 600 nm over 16 h; read-out: ATCC 17961 IC90. It is filed as cell-based. The method in brief:
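OD600 monitored each minute over 16 h at 35±2° C for bacteria (~5×10^5 CFU/mL final) in Iso-Sensitest medium with 10-point twofold compound series (e.g. 10-0.0195 μM final). Concentration giving 90% growth inhibition in log phase reported as IC90.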
As to `Cn1c(-c2cn(-c3ccc(NCCN)cn3)nc2C(F)(F)F)cnc1C(=O)Nc1ccc(C(=O)N2CCN(C(=O)[C@H]3CC[N@+](CC(=O)O)(CC4CNC4)CC3)CC2)c(Cl)c1` [Example 73, cis-2-[4-[4-[4-[[5-[1-[5-(2-aminoethylamino)-2-pyridyl]-3-(trifluoromethyl)pyrazol-4-yl]-1-methyl-imidazole-2-carbonyl]amino]-2-chloro-benzoyl]piperazine-1-carbonyl]-1-(azetidin-3-ylmethyl)piperidin-1-ium-1-yl]acetic acid; formic acid; formate], the IC90 was found to be 870 nM.
For “cis-2-[4-[4-[4-[[5-[1-(4-Amino-2-fluoro-phenyl)-3-(difluoromethyl) pyrazol-4-yl]-1-methyl-imidazole-2-carbonyl]amino]-2-chloro-benzoyl]piperazine-1-carbonyl]-1-(azetidin-3-ylmethyl)piperidin-1-ium-1-yl]acetic Acid;2,2,2-trifluoroacetate [Example 128]”, the IC90 was determined as 358 nM.

Staying with this assay, now noted: Acinetobacter baumannii, ATCC17961, 16 h, 90% growth inhibitory concentration against Acinetobacter baumannii ATCC17961, Iso-Sensitest broth, OD 600 nm over 16 h; read-out: ATCC 17961 IC90.
For `Cn1c(-c2cn(-c3ccc(N)cc3F)nc2C(F)(F)F)cnc1C(=O)Nc1ccc(C(=O)N2CCN(C(=O)[C@H]3CC[N@+](CC(=O)O)(CC4CNC4)CC3)CC2)c(Cl)c1` [Example 16, cis-2-[4-[4-[4-[[5-[1-(4-amino-2-fluoro-phenyl)-3-(trifluoromethyl)pyrazol-4-yl]-1-methyl-imidazole-2-carbonyl]amino]-2-chloro-benzoyl]piperazine-1-carbonyl]-1-(azetidin-3-ylmethyl)piperidin-1-ium-1-yl]acetic acid. 1:1 2,2,2-trifluoroacetate], the IC90 came out at 210 nM.
With `C[C@H]1CN(C(=O)C2CC[N+](CC(=O)O)(CC3CNC3)CC2)CCN1C(=O)c1ccc(NC(=O)c2ncc(-c3cn(-c4ccc(N)cn4)nc3C(F)(F)F)n2C)cc1Cl` (stereo partly drawn) [Example 79, 2-[4-[(3S)-4-[4-[[5-[1-(5-amino-2-pyridyl)-3-(trifluoromethyl)pyrazol-4-yl]-1-methyl-imidazole-2-carbonyl]amino]-2-chloro-benzoyl]-3-methyl-piperazine-1-carbonyl]-1-(azetidin-3-ylmethyl)piperidin-1-ium-1-yl]acetic acid. 1:1 formate], the IC90 is 1120 nM.
As to `Cn1c(-c2cn(-c3ccc(N)cc3F)nc2C(F)(F)F)cnc1C(=O)Nc1ccc(C(=O)N2CCN(C(=O)C3CC[N+](C)(CC(=O)O)CC3)CC2)c(Cl)c1` (centres unmarked) [Example 193, 2-[4-[4-[4-[[5-[1-(4-amino-2-fluoro-phenyl)-3-(trifluoromethyl)pyrazol-4-yl]-1-methyl-imidazole-2-carbonyl]amino]-2-chloro-benzoyl]piperazine-1-carbonyl]-1-methyl-piperidin-1-ium-1-yl]acetic acid;iodide], the 90% effect concentration (IC90) came out at 371 nM.
On the same count and under the same terms, with `C[C@H]1CN(C(=O)c2ccc(NC(=O)c3ncc(-c4cn(-c5ccc(N)cn5)nc4C(F)(F)F)n3C)cc2Cl)CCN1C(=O)C1CC[N+](CC(=O)O)(CC2CNC2)CC1` (stereo partly drawn) [Example 77, 2-[4-[(2S)-4-[4-[[5-[1-(5-amino-2-pyridyl)-3-(trifluoromethyl)pyrazol-4-yl]-1-methyl-imidazole-2-carbonyl]amino]-2-chloro-benzoyl]-2-methyl-piperazine-1-carbonyl]-1-(azetidin-3-ylmethyl)piperidin-1-ium-1-yl]acetic acid. 1:1 formate] the figure was 1100 nM.
`Cn1c(-c2cn(-c3ccc(N)cn3)nc2C(F)(F)F)cnc1C(=O)Nc1ccc(C(=O)N2CCN(C(=O)C[C@H](N)C(=O)O)CC2)c(Cl)c1` [Example 83, (2S)-2-amino-4-[4-[4-[[5-[1-(5-amino-2-pyridyl)-3-(trifluoromethyl)pyrazol-4-yl]-1-methyl-imidazole-2-carbonyl]amino]-2-chloro-benzoyl]piperazino]-4-keto-butyric acid. 1:1 2,2,2-trifluoroacetic acid]: the IC90 amounted to 1240 nM.
Still for that read-out and setting: with `Cn1c(-c2cn(-c3cc4[nH]c(C(=O)N5CCS(=N)(=O)CC5)cc4cn3)nc2C(F)(F)F)cnc1C(=O)Nc1ccc(C(=O)N2CCN(C(=O)[C@H]3CC[N@+](CC(=O)O)(CC4CNC4)CC3)CC2)c(Cl)c1` [Example 114, cis-2-[1-(azetidin-3-ylmethyl)-4-[4-[2-chloro-4-[[5-[1-[2-(1-imino-1-keto-1,4-thiazinane-4-carbonyl)-1H-pyrrolo[3,2-c]pyridin-6-yl]-3-(trifluoromethyl)pyrazol-4-yl]-1-methyl-imidazole-2-carbonyl]amino]benzoyl]piperazine-1-carbonyl]piperidin-1-ium-1-yl]acetic acid. 1:1 2,2,2-trifluoroacetate] the figure was 637 nM.
With `Cn1c(-c2cn(-c3ccc(N)cc3F)nc2C(F)(F)F)cnc1C(=O)Nc1ccc(C(=O)N2CCN(C(=O)C3CC[N+](CCCO)(CC(=O)O)CC3)CC2)c(Cl)c1` (centres unmarked) [Example 159, 2-[4-[4-[4-[[5-[1-(4-amino-2-fluoro-phenyl)-3-(trifluoromethyl)pyrazol-4-yl]-1-methyl-imidazole-2-carbonyl]amino]-2-chloro-benzoyl]piperazine-1-carbonyl]-1-(3-hydroxypropyl)piperidin-1-ium-1-yl]acetic acid. 1:1 2,2,2-trifluoroacetate], the concentration for an effect of 90% (IC90) was found to be 647 nM.
Still for that read-out and setting: as for `Cn1c(-c2cn(-c3ccc(N)cn3)nc2C(F)(F)F)cnc1C(=O)Nc1ccc(C(=O)N2CCN(C(=O)[C@@H](N)CC(=O)O)CC2)c(Cl)c1` [Example 91, (3S)-3-amino-4-[4-[4-[[5-[1-(5-amino-2-pyridyl)-3-(trifluoromethyl)pyrazol-4-yl]-1-methyl-imidazole-2-carbonyl]amino]-2-chloro-benzoyl]piperazino]-4-keto-butyric acid. 1:1 2,2,2-trifluoroacetic acid], the figure is 1530 nM; as for `Cn1c(-c2cn(-c3ccc(C#N)cn3)nc2C(F)(F)F)cnc1C(=O)Nc1ccc(C(=O)N2CCN(C(=O)C3CC[N+](CC(=O)O)(CC4CNC4)CC3)CC2)c(Cl)c1` (centres unmarked) [Example 76, 2-[1-(azetidin-3-ylmethyl)-4-[4-[2-chloro-4-[[5-[1-(5-cyano-2-pyridyl)-3-(trifluoromethyl)pyrazol-4-yl]-1-methyl-imidazole-2-carbonyl]amino]benzoyl]piperazine-1-carbonyl]piperidin-1-ium-1-yl]acetic acid. 1:1 formate], 1030 nM; as for `Cn1c(-c2cn(-c3cc4[nH]c(C(=O)NC5CCNC5=O)cc4cn3)nc2C(F)(F)F)cnc1C(=O)Nc1ccc(C(=O)N2CCN(C(=O)[C@H]3CC[N@+](CC(=O)O)(CC4CNC4)CC3)CC2)c(Cl)c1` (stereo partly drawn) [Example 120, cis-2-[1-(azetidin-3-ylmethyl)-4-[4-[2-chloro-4-[[5-[1-[2-[(2-ketopyrrolidin-3-yl)carbamoyl]-1H-pyrrolo[3,2-c]pyridin-6-yl]-3-(trifluoromethyl)pyrazol-4-yl]-1-methyl-imidazole-2-carbonyl]amino]benzoyl]piperazine-1-carbonyl]piperidin-1-ium-1-yl]acetic acid. 1:1 2,2,2-trifluoroacetate], 527 nM.
Turning to `Cn1c(-c2cn(-c3nccs3)nc2C(F)(F)F)cnc1C(=O)Nc1ccc(C(=O)N2CCN(C(=O)C3CC[N+](CC(=O)O)(CC4CNC4)CC3)CC2)c(Cl)c1` (centres unmarked) [Example 43, 2-[1-(azetidin-3-ylmethyl)-4-[4-[2-chloro-4-[[1-methyl-5-[1-thiazol-2-yl-3-(trifluoromethyl)pyrazol-4-yl]imidazole-2-carbonyl]amino]benzoyl]piperazine-1-carbonyl]piperidin-1-ium-1-yl]acetic acid. 1:1 formate], the IC90 was 460 nM.
For the compound `Cn1c(-c2cn(-c3ccc(CCN)cn3)nc2C(F)(F)F)cnc1C(=O)Nc1ccc(C(=O)N2CCN(C(=O)C3CC[N+](CC(=O)O)(CC4CNC4)CC3)CC2)c(Cl)c1` (centres unmarked) [Example 1, 2-[4-[4-[4-[[5-[1-[5-(2-Aminoethyl)-2-pyridyl]-3-(trifluoromethyl)pyrazol-4-yl]-1-methyl-imidazole-2-carbonyl]amino]-2-chloro-benzoyl]piperazine-1-carbonyl]-1-(azetidin-3-ylmethyl)piperidin-1-ium-1-yl]acetic Acid.1:1 2,2,2-trifluoroacetic Acid.1:1 2,2,2-trifluoroacetate], the IC90 came out at 330 nM.
Regarding `Cn1c(-c2cn(-c3ccc(N4CCOCC4)cn3)nc2C(F)(F)F)cnc1C(=O)Nc1ccc(C(=O)N2CCN(C(=O)C3CC[N+](CC(=O)O)(CC4CNC4)CC3)CC2)c(Cl)c1` (centres unmarked) [Example 26, 2-[1-(azetidin-3-ylmethyl)-4-[4-[2-chloro-4-[[1-methyl-5-[1-(5-morpholino-2-pyridyl)-3-(trifluoromethyl)pyrazol-4-yl]imidazole-2-carbonyl]amino]benzoyl]piperazine-1-carbonyl]piperidin-1-ium-1-yl]acetic acid. 1:1 formate], the 90% effect concentration (IC90) was determined as 360 nM.
As for `Cn1c(-c2cn(-c3ccc(NCC4CCNCC4)cn3)nc2C(F)(F)F)cnc1C(=O)Nc1ccc(C(=O)N2CCN(C(=O)C3CC[N+](CC(=O)O)(CC4CNC4)CC3)CC2)c(Cl)c1` (centres unmarked) [Example 5, 2-[1-(azetidin-3-ylmethyl)-4-[4-[2-chloro-4-[[1-methyl-5-[1-[5-(4-piperidylmethylamino)-2-pyridyl]-3-(trifluoromethyl)pyrazol-4-yl]imidazole-2-carbonyl]amino]benzoyl]piperazine-1-carbonyl]piperidin-1-ium-1-yl]acetic acid. 1:1 2,2,2-trifluoroacetate], the 90% effect concentration (IC90) was 590 nM.
Still for that read-out and setting: with `Cn1c(-c2cn(-c3ncc(N)cc3F)nc2C(F)(F)F)cnc1C(=O)Nc1ccc(C(=O)N2CCN(C(=O)[C@H]3CC[N@+](CC(=O)O)(CC4CNC4)CC3)CC2)c(Cl)c1` [Example 58, cis-2-[4-[4-[4-[[5-[1-(5-Amino-3-fluoro-2-pyridyl)-3-(trifluoromethyl)pyrazol-4-yl]-1-methyl-imidazole-2-carbonyl]amino]-2-chloro-benzoyl]piperazine-1-carbonyl]-1-(azetidin-3-ylmethyl)piperidin-1-ium-1-yl]acetic Acid.1:1 2,2,2-trifluoroacetate] the figure was 630 nM.

The IC90 is the point of the concentration-response curve where the effect stands at 90%.
